# Assay results reported in US20190083449A1, “COMBINATION THERAPY WITH AN ANTI-HYALURONAN AGENT AND THERAPEUTIC AGENT” (Halozyme, Inc., priority 2012, published 2019).
# What was measured:
# B16 melanoma model = conditions: oral administration at 600 mg/kg/d; cited from earlier work
# [1] = route (IV or PO); cited from earlier work
# cytidine deaminase = molecular target: T1, cytidine deaminase (Homo sapiens, UniProt P32320); conditions: cited from earlier work; for Km: enzyme purified from human liver
# T1 construct: for the enzyme purified from human liver; from tissue; host or cells: human liver
# T1 sequence (P32320 whole entry): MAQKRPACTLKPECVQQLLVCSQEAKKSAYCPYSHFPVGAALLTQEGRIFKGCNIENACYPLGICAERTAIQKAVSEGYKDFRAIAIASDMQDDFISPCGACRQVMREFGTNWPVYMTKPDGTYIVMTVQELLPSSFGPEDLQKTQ
# [2] = system: BxPC3 pancreatic cancer cell line; assay: Tumor growth inhibition in BxPC3 xenograft model, PEGPH20, nab-paclitaxel and/or gemcitabine; type: in vivo, mouse
# Protocol: The human pancreatic cancer xenograft model described in Example 1 was used to evaluate the antitumor effects of PEGPH20 and nab-paclitaxel combination therapy in further combination with gemcitabine treatment. Prior to performing the study, a route and dose level for gemcitabine was selected based. […] The results are depicted in FIG. 2. […] Gemcitabine was administered intraperitoneally 24 hours after PEGPH20 and/or nab-paclitaxel every 7 days for three weeks of the dose cycle. […] The results are depicted in FIG. 3. […] Table 6 depicts the results as the percentage growth inhibition relative to vehicle as determined from tumor volume measurements at day 26.
# [3] = system: BxPC3 pancreatic cancer cell line; assay: Median survival time to endpoint in BxPC3 xenograft model; type: in vivo, mouse; conditions: three four-week dosing cycles; PEGPH20 4.5 mg/mL, nab-paclitaxel 10 mg/kg, gemcitabine 180 mg/kg; endpoint tumor >2000 mm^3, >20% bodyweight loss, duress or death
# Protocol: Following the first four week dosing cycle as set forth in part A, the dosing cycle was repeated two times and time to survival endpoint was followed over time. Briefly, in each dosing cycle, animals were treated with vehicle or PEGPH20 (4.5 mg/mL) with or without nab-paclitaxel (10 mg/kg) intravenously twice a week for four weeks. In each cycle, groups receiving gemcitabine were administered gemcitabine (180 mg/kg) 24 hours after PEGPH20 and/or nab-paclitaxel every 7 days for three weeks of the dose cycle. Time to survival endpoint, a surrogate of animal survival, was defined as (a) time to tumor volume of greater than 2000 mm^3, (b) time to a greater than 20% bodyweight loss, or (c) time to animal duress or death.
# [4] = system: carbohydrate antigen 19-9 (CA19-9); assay: Serum CA19-9 tumor biomarker ELISA in BxPC3 xenograft model; type: in vivo, mouse; conditions: day 20 of first dosing cycle
# Protocol: (§1) Biomarkers carbohydrate antigen 19-9 (CA19-9) and carcinoembryonic antigen (CEA) associated with pancreatic cancer were tested to measure therapeutic response. Animals were treated as described in part A. Serum was collected from satellite animals (n≤3) from each group on day 0, 6, 13 and 20 of the first dosing cycle. Human CA19-9 was measured using a CA 19-9 ELISA kit (Catalog No. CA199T, Calbiotech, Spring Valley, Calif.) and CEA tumor antigen was measured using a CEA ELISA kit (Catalog No. CE062T, Calbiotech, Spring Valley, Calif.).
# [5] = system: carcinoembryonic antigen (CEA); assay: Serum CEA tumor biomarker ELISA in BxPC3 xenograft model; type: in vivo, mouse; conditions: day 20 of first dosing cycle
# Protocol: as §1
# [6] = rapid deamination by deoxycytidine deaminase to dFdU; cited from earlier work
# pancreatic cancer = conditions: cited from earlier work
compound,measurement,setting,value
"Cc1cc(=O)oc2cc(O)ccc12 [4-MU, 7-hydroxy-4-methylcoumarin]",reduction of metastases,B16 melanoma model,64%
C[C@]12CCC(=O)C=C1CC[C@@H]1[C@@H]2[C@@H](O)C[C@@]2(C)[C@H]1CC[C@]2(O)C(=O)CO [Hydrocortisone],Equivalent Potency,[1],20 mg
C[C@H]1C[C@@H]2[C@H]([C@@H](O)C[C@@]3(C)[C@H]2CC[C@]3(O)C(=O)COC(=O)CCC(=O)O)[C@@]2(C)C=CC(=O)C=C12 [Methylprednisolone sodium succinate],Equivalent Potency,[1],4 mg
C[C@]12C=CC(=O)C=C1CC[C@@H]1[C@@H]2[C@@H](O)C[C@@]2(C)[C@H]1CC[C@]2(O)C(=O)CO [Prednisolone],Equivalent Potency,[1],5 mg
"Nc1ncn([C@H]2C[C@H](O)[C@@H](CO)O2)c(=O)n1 [decitabine, 5-aza-2′-deoxycytidine]",Km,cytidine deaminase,250 µM
Nc1ccn([C@H]2C[C@H](O)[C@@H](CO)O2)c(=O)n1 [deoxycytidine],rate of deamination relative to decitabine,cytidine deaminase; at equal concentrations,about 6 fold
same,Km,cytidine deaminase,12 µM
"Nc1ccn([C@@H]2O[C@H](CO)[C@@H](O)C2(F)F)c(=O)n1 [gemcitabine, 2′-deoxy-2′,2′-difluorocytidine]",Tumor Growth Inhibition (% of vehicle control),"[2]; day 26, PEGPH20 4.5 mg/kg i.v. 2x/wk, nab-paclitaxel 10 mg/kg i.v. 2x/wk, gemcitabine 180 mg/kg i.p. weekly",25%
same,antitumor activity (in words),"[2]; four week dose cycle, FIG. 3",some antitumor activity
same,tumor growth compared to vehicle only (in words),"[2]; gemcitabine 60, 120, 180 and 240 mg/kg once a week (day 0, 7, 14, 21)",inhibited tumor growth at all doses tested
same,Median Survival Time,[3],38 days
same,level of CA19-9 marker in serum,[4],approximately similar to vehicle only control
same,level of CEA marker in serum,[5],approximately 15 ng/mL
same,half-life in plasma,[6],approximately 10 minutes
same,survival compared to patients who had surgery alone,pancreatic cancer; adjuvant setting,increased survival by two months
same,median survival,pancreatic cancer; gemcitabine monotherapy,over 5 months
